# Laboratory results as given in patent US4837228A, “Antiinflammatory and antimicrobial compounds and compositions” (The University of Mississippi, priority 1982, dated 1989).
# “Also recorded” adds a separate entry of the source. Where two headings read alike, the source gives them in different places.
# What was measured:
# [1] = inducement of hypothermia in mice (rectal temperature); type: in vivo; conditions: 100 mg/kg i.p.
# Method: CBC (100 mg/kg) was prepared in emulsion form with 3% Tween 60 and 3% Arlacel in normal saline (0.9%) in such a way as to permit a volume of […] of body weight to be injected intraperitoneally into male mice weighing between 32 and 38 grams.
# The animals were divided into groups of 10, and body temperatures were recorded with a multichannel Yellow Springs Telethermometer and Thermistor probes. During the experiment, the mice were confined in plastic restraint tubes. They were allowed 45-60 min. for adaption to the restraint tubes and to rectal thermister before a pre-drug baseline temperature reading was taken. Body temperature readings were obtained at 0.5, 1.0, 2.0, 3.0 and 4.0 hrs. post-CBC administration.
# The mean (±S.E.) decrease in temperature from the preinjection baseline reading for saline-, vehicle-, and CBC-treated mice were calculated and statistical analyses were conducted using the two-tailed Student's t test.
# [2] = tested on: carrageenan-induced rat paw edema; assay: carrageenan-induced rat paw edema test, intraperitoneal dosing; type: in vivo; parameters: key to mean difference in volume (MDV): post-injection minus pre-injection mean paw volume; key to group mean difference score: post-injection minus pre-injection paw volume score; conditions: for percent increase in paw volume / percent of control / mean difference in volume (MDV): Table 1; for group mean difference score / difference of mean scores versus vehicle control (Duncan's test) / difference of mean scores (Duncan's test): Table 3
# [3] = tested on: Saccharomyces cerevisiae; assay: MIC, two-fold (broth) serial dilution, S. cerevisiae; type: cell-based
# Summary of the method: (§1)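 Agar well diffusion gave qualitative activity, and two-fold broth serial dilution gave MIC. Inoculum was one loop of a 1:10 dilution of 24-h broth culture; fungi and M. smegmatis often needed 48–72 h incubation. Streptomycin sulfate and amphotericin B served as antibacterial and antifungal controls.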
# [4] = tested on: Mycobacterium smegmatis; assay: agar well diffusion assay, M. smegmatis; type: cell-based; conditions: from edge of agar well
# Method: (§2) Both qualitative and quantitative screens were performed. Qualitative screening was accomplished using the agar well diffusion assay technque while quantitative screening was accomplished by the two-fold (broth) serial dilution method to determine the minimum inhibitory concentration (MIC). Innoculation was accomplished with one loop-full of a 1:10 dilution of the 24-hour-old broth culture, (fungal cultures and M.smegmatis more often required 48 to 72 hours of incubation) of the test organisms in sterile water. Streptomycin sulfate was used as a positive control for antibacterial activity while amphitericin B was used as an antifungal positive control. Organisms utilized in the screens included gram-positive, gram-negative, and acid-fast bacteria as well as different types of fungi. […] An intermediate type activity is seen where R is hydrogen. However, where R is lengthened up to C15 a decrease in activity was noted. Total saturation of the two double bonds in the compounds having a methyl side chain lead, in most cases, to an increase in both antifungal and antibacterial activity.
# [5] = tested on: Bacillus subtilis; assay: agar well diffusion assay, B. subtilis; type: cell-based; conditions: from edge of agar well
# Method: as §2
# [6] = deaths and adverse effects observed in the rat paw edema test; type: in vivo; conditions: 480 mg/kg i.p. plus ethyl urethane i.p.
# Method: In the Rat Paw Edema Test, the rats utilized were divided into test groups of six to eight animals, weighed and marked so that individual rats could be identified; one hour before testing all rats were given a 700 mg/kg intraperitoneal injection of ethyl urethane in distilled water to render them tractable during testing. A circle was drawn, with a felt-tipped marker, around the hind leg of each rat just above the ankle, and each rat was dosed with a test or control compound by intraperitoneal injection. Negative control groups received the vehicle; while positive control groups received a dose of phenylbutazone (PBZ) as shown in Table II. Test compounds were given at doses of 60, 120, 240 and 480 mg/kg. The positive controls were given at 120 mg/kg and 60 mg/kg. Phenylbutazone was prepared for injection by suspending it in normal saline using Tween 60. The rats were then held in group cages for 30 minutes. The volume of the left hind paw was measured using a mercury displacement pleysmograph. The paw is dipped into the mercury until the mercury touches the line above the ankle. Mercury is then withdrawn until the mercury returns to its original level. The amount of mercury removed is measured in milliliters (ml). The mercury can be measured accurately to 0.01 ml. This left hind paw was then injected with 0.1 ml of a 5% w/v solution of viscous carageenan in normal saline. The injection was given between the metatarsal bones using a 27 gauge needle, and the rats then held in group cages for 3 hours. The volume of the left hind paws was measured again in the pleysmograph. The results were computed in the following manner:
# The eighth rat died within 24 hours of injection.
# [7] = tested on: Staphylococcus aureus; assay: agar well diffusion assay, S. aureus; type: cell-based; conditions: from edge of agar well
# Method: as §2
# [8] = tested on: Aspergillus niger; assay: agar well diffusion assay, A. niger; type: cell-based; conditions: from edge of agar well
# Method: as §2
# [9] = CNS screen in unanesthetized mice; type: in vivo; conditions: doses as large as 800 mg/kg
# [10] = tested on: Bacillus subtilis; assay: MIC, two-fold (broth) serial dilution, B. subtilis; type: cell-based; conditions: Bacillus subtilis, read-out: MIC
# Summary of the method: as §1
# [11] = Rattus norvegicus, ip, read-out: inhibition of carrageenan-induced rat paw edema
smiles,measurement,setting,value
"CCCCCc1cc(O)c2c(c1)OC(C)(CCC=C(C)C)C=C2 (centres unmarked) [CBC (I), 2-methyl-2(4'methyl-pent-3'-enyl)-5-hydroxy-7-pentyl chromene]",time of peak hypothermic effect,[1],within the first two hours
same,mean (±S.E.) decrease in rectal temperature,[1]; 0.5 hrs,1.86 ± 0.18 °0
same,mean (±S.E.) decrease in rectal temperature,[1]; 1.0 hrs,2.52 ± 0.26 °0
same,mean (±S.E.) decrease in rectal temperature,[1]; 2.0 hrs,1.93 ± 0.21 °0
same,mean (±S.E.) decrease in rectal temperature,[1]; 3.0 hrs,1.53 ± 0.21 °0
same,mean (±S.E.) decrease in rectal temperature,[1]; 4.0 hrs,1.61 ± 0 °0
same,"hypothermia, significance versus controls",[1]; listed as CBC,"significantly different from saline controls at all readings; also recorded: significantly different from vehicle controls at 0.5, 1.0 and 4.0 hrs"
same,inhibition at 120 mg/kg,[2]; [11],70%
same,inhibition at 240 mg/kg,[2]; [11],86%
same,inhibition at 480 mg/kg,"[2]; Rattus norvegicus, ip, Table 5, 480 mg/kg i.p.",100%
same,percent increase in paw volume,[2]; 120 mg/kg i.p.,12.729%
same,percent of control,[2]; 120 mg/kg i.p.,30.000%
same,mean difference in volume (MDV),"[2]; 120 mg/kg i.p., paw volume measured in ml",0.139
same,mean difference in volume (MDV),[2]; 240 mg/kg i.p.,0.004
same,percent increase in paw volume,[2]; 240 mg/kg i.p.,0.365%
same,percent of control,[2]; 240 mg/kg i.p.,0.927%
same,mean difference in volume (MDV),[2]; 480 mg/kg i.p.,-0.043
same,percent increase in paw volume,[2]; 480 mg/kg i.p.,-3.708%
same,percent of control,[2]; 480 mg/kg i.p.,-9.189%
same,group mean difference score,[2]; 120 mg/kg,0.139
same,difference of mean scores versus vehicle control (Duncan's test),"[2]; 120 mg/kg, ** p 0.01",0.324
same,group mean difference score,[2]; 240 mg/kg,0.004
same,difference of mean scores versus vehicle control (Duncan's test),"[2]; 240 mg/kg, ** p 0.01",0.458
same,group mean difference score,[2]; 480 mg/kg,0.043
same,difference of mean scores versus vehicle control (Duncan's test),"[2]; 480 mg/kg, ** p 0.01",0.505
same,difference of mean scores (Duncan's test),"[2]; CBC 120 mg/kg versus CBC 240 mg/kg, * p 0.05",0.134
same,difference of mean scores (Duncan's test),"[2]; CBC 120 mg/kg versus CBC 480 mg/kg, ** p 0.01",0.181
same,difference of mean scores (Duncan's test),[2]; CBC 120 mg/kg versus PBZ 120 mg/kg,0.033
same,difference of mean scores (Duncan's test),[2]; CBC 240 mg/kg versus CBC 480 mg/kg,0.047
same,antiinflammatory effect in words,[2]; i.p.,strong antiinflammatory effects
same,"significance of difference (ANOVA, Duncan's test)","[2]; i.p., difference scores, listed as CBC",The 120 mg/kg dose of CBC differed significantly from the 240 and 480 mg/kg doses of CBC; also recorded: the 480 mg/kg dose of CBC differed significantly from the 120 mg/kg dosage of PBZ
same,MIC,[3]; 48 hr,25.0 µg/mL
same,MIC,[3]; 72 hr,50.0 µg/mL
same,MIC,"[3]; Saccharomyces cerevisiae, 48 h, read-out: MIC",25 µg/mL
same,MIC,"[3]; Saccharomyces cerevisiae, 72 h, read-out: MIC",50 µg/mL
same,width of inhibition zone,[4]; 24 hr,15. mm
same,width of inhibition zone,[4]; 48 hr,12. mm
same,width of inhibition zone,[5]; 24 hr,8.0 mm
same,width of inhibition zone,[5]; 48 hr,5.0 mm
same,deaths,[6],All the animals receiving 480 mg/kg died within 2 days of injection
same,width of inhibition zone,[7]; 24 hr,10. mm
same,width of inhibition zone,[7]; 48 hr,10. mm
same,width of inhibition zone,[8]; 48 hr,2. mm
same,width of inhibition zone,[8]; 72 hr,2. mm
same,effects on the CNS screen,[9],No significant effects
same,MIC,[10]; 24 h,0.39 µg/mL
same,MIC,[10]; 48 h,0.78 µg/mL
